What is called IC50 is the concentration at which inhibition is half-maximal.

SMILES strings stand for the structures.

Common to all, as to type: biochemical
The target of one assay is T1, aggrecanase-1 (Homo sapiens, UniProt O75173).
T1 sequence (O75173 213-837): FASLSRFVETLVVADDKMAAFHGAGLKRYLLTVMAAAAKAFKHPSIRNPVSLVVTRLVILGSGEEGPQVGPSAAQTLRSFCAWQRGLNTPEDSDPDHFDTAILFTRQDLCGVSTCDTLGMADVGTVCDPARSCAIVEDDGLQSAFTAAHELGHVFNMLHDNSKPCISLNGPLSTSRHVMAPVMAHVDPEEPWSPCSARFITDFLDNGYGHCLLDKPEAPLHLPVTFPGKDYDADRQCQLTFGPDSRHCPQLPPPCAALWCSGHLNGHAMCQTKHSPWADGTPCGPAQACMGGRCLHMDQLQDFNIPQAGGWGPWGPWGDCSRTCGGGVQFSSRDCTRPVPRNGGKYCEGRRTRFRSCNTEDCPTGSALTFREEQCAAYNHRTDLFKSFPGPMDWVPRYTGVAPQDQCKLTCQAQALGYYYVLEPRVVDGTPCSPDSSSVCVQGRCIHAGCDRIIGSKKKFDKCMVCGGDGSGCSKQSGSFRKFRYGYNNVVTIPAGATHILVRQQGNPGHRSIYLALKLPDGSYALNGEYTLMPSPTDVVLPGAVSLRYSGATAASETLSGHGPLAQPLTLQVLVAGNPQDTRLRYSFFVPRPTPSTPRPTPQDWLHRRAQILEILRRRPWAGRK
The assay can be described thus: Aggrecanase-1 inhibitory action (Particle Assay, GAG release from aggrecan-containing polyacrylamide particles). The conditions noted are these: Experimental Example 1; read-out: IC50 AG1. In outline:
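Readout was dimethylmethylene blue absorbance (595 nm) of glycosaminoglycan liberated into supernatant, calibrated with whale chondroitin sulfate. Substrate was aggrecan in polyacrylamide particles, digested 15 h at 37° C in Tris-HCl; TC50 (μM) derived from inhibition relative to no-enzyme and no-inhibitor controls.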

The next assay deals with T2, MMP-1 (Homo sapiens, UniProt P03956).
T2 sequence (P03956 100-469): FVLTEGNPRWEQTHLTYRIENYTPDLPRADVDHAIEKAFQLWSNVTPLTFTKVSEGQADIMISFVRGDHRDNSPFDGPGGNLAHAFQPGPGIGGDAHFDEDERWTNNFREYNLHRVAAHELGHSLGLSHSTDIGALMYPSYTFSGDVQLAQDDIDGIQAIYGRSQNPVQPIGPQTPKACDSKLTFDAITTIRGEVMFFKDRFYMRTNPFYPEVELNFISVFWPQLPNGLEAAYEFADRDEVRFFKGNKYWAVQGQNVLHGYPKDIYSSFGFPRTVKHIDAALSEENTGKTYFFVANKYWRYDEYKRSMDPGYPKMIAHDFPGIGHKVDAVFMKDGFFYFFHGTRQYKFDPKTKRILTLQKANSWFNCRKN
The assay can be described thus: MMP-1 inhibitory action (Type I collagen Activity Measurement kit, FITC-labeled collagen type I). The settings on record: Experimental Example 2; read-out: IC50 MMP1.

For the next assay, the target named is T3, Recombinant Human MMP-13 (Homo sapiens, UniProt P45452).
T3 construct: purchased R&D systems 511-MM
The assay can be described thus: MMP-13 inhibitory activity (MMP-13 specific fluorescent substrate with quencher). The settings on record: Experimental Example 3; read-out: IC50 MMP13. In outline:
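IC50 (μM) derived from % inhibition, normalised to wells without enzyme and without inhibitor, fluorescence read at 325/405 nm. Enzyme and compound preceded addition of the quenched 7-MCA…DPA substrate; Tris-HCl buffer, 25 °C for 1 h, acetic-acid stop.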

Take `C[C@]1(c2ccccc2)C[C@@]1(NS(=O)(=O)c1ccc(-c2ccc(Cl)c([N+](=O)[O-])c2)s1)C(=O)O` [Example 2-477]: the IC50 on aggrecanase-1 is at least 1000 nM; on MMP-1, at least 10000 nM; at Recombinant Human MMP-13 it was at least 1000 nM.
For the molecule `CCOC(=O)c1cccc(-c2ccc(S(=O)(=O)N[C@@]3(C(=O)O)C[C@]3(C)c3ccccc3)s2)c1` [Example 2-478], the concentration for half-maximal inhibition (IC50) on aggrecanase-1 was at least 1000 nM; on MMP-1, at least 10000 nM; at Recombinant Human MMP-13, at least 10000 nM.
For `C[C@]1(c2ccccc2)C[C@@]1(NS(=O)(=O)c1ccc(-c2cccc(C(=O)O)c2)s1)C(=O)O` [Example 2-479], the IC50 at aggrecanase-1 was at least 1000 nM; on MMP-1, at least 10000 nM; on Recombinant Human MMP-13, at least 10000 nM.
In the case of `CC(=O)Nc1cccc(-c2ccc(S(=O)(=O)N[C@@]3(C(=O)O)C[C@]3(C)c3ccccc3)s2)c1` [Example 2-480], the IC50 at aggrecanase-1 is below 1000 nM; at MMP-1 it was below 1000 nM; on Recombinant Human MMP-13 it was below 100 nM.
As for `Cc1cnn(-c2ccc(S(=O)(=O)N[C@@]3(C(=O)O)C[C@@H]3c3ccccc3)cn2)c1` [Example 2-481], the figures for the IC50 at aggrecanase-1, on MMP-1 and at Recombinant Human MMP-13 were at least 1000 nM, at least 10000 nM and below 100 nM, respectively.
The matching figures for `COc1cnn(-c2ccc(S(=O)(=O)N[C@@]3(C(=O)O)C[C@@H]3c3ccccc3)cn2)c1` [Example 2-482]: at least 1000 nM, at least 10000 nM and below 100 nM.
On the same counts, the results for `Cc1nc2cc(N3CCN(S(=O)(=O)N[C@@]4(C(=O)O)C(C)[C@@H]4c4ccccc4)CC3)ccc2s1` (stereo partly drawn) [Example 2-483] are at least 1000 nM, at least 10000 nM and at least 1000 nM.
Turning to `Cc1cnc(N2CCN(S(=O)(=O)N[C@@]3(C(=O)O)C(C)[C@@H]3c3ccccc3)CC2)s1` (stereo partly drawn) [Example 2-484], the IC50 at aggrecanase-1 is at least 1000 nM; on MMP-1 it was at least 10000 nM; at Recombinant Human MMP-13, below 1000 nM.
Consider `C[C@]1(c2ccccc2)C[C@@]1(NS(=O)(=O)c1ccc(-c2ccc3c(c2)OCCO3)s1)C(=O)O` [Example 2-485], for which the IC50 was below 1000 nM on aggrecanase-1, at least 10000 nM on MMP-1 and at least 1000 nM on Recombinant Human MMP-13.
On the same counts, the results for `O=C(NO)C1(NS(=O)(=O)c2ccc(-c3cc(C(F)(F)F)on3)s2)C2CCc3ccccc3C21` (stereo not drawn) [Example 2-486] are below 1000 nM, below 1000 nM and below 100 nM.
The matching figures for `C[C@]1(c2ccccc2)C[C@@]1(NS(=O)(=O)c1ccc(-c2ccc3nnn(O)c3c2)s1)C(=O)O` [Example 2-487]: at least 1000 nM, at least 10000 nM and at least 1000 nM.
On the same counts, the results for `CN(C)c1cc(-c2ccc(S(=O)(=O)N[C@@]3(C(=O)O)C[C@]3(C)c3ccccc3)s2)ccc1Cl` [Example 2-488] are at least 1000 nM, at least 10000 nM and at least 1000 nM.
Turning to `O=C(O)C1(NS(=O)(=O)c2cn3cc(-c4ccccc4)nc3s2)CC1c1ccccc1` (stereo not drawn) [Example 2-489], the half-maximal inhibitory concentration (IC50) at aggrecanase-1 is at least 1000 nM; at MMP-1 it was at least 10000 nM; on Recombinant Human MMP-13, below 100 nM.
On the same counts, the results for `O=C(O)C1(NS(=O)(=O)c2cn3cc(-c4ccc(Cl)cc4)nc3s2)CC1c1ccccc1` (stereo not drawn) [Example 2-490] are at least 1000 nM, at least 10000 nM and below 100 nM.
The matching figures for `O=C(O)C1(NS(=O)(=O)c2cn3cc(-c4ccc(F)cc4)nc3s2)CC1c1ccccc1` (stereo not drawn) [Example 2-491]: at least 1000 nM, at least 10000 nM and below 100 nM.
The matching figures for `COc1cnn(-c2ccc(S(=O)(=O)N[C@@]3(C(=O)O)C(C)[C@@H]3c3ccccc3)s2)c1` (stereo partly drawn) [Example 2-492]: below 100 nM, below 100 nM and below 100 nM.
`CC1[C@H](c2ccccc2)[C@]1(NS(=O)(=O)c1ccc(-c2cc3ccccc3[nH]2)s1)C(=O)O` (stereo partly drawn) [Example 2-493]: the IC50 at aggrecanase-1 was below 100 nM; at MMP-1, below 1000 nM; on Recombinant Human MMP-13, below 100 nM.
Regarding `CC1[C@H](c2ccccc2)[C@]1(NS(=O)(=O)c1ccc(-n2cc(Br)cn2)s1)C(=O)O` (stereo partly drawn) [Example 2-494], the IC50 at aggrecanase-1, on MMP-1 and at Recombinant Human MMP-13 was below 100 nM each time.
As to `O=C(NO)C1(NS(=O)(=O)c2ccc(-c3cc(C(F)(F)F)on3)s2)C2Cc3ccccc3C21` (stereo not drawn) [Example 2-495], the IC50 on aggrecanase-1, at MMP-1 and on Recombinant Human MMP-13 was below 100 nM throughout.
Turning to `CC1[C@H](c2ccccc2)[C@]1(NS(=O)(=O)c1ccc(-c2ccc(Cl)c(N)c2)s1)C(=O)O` (stereo partly drawn) [Example 2-496], the concentration for half-maximal inhibition (IC50) on aggrecanase-1 was below 100 nM; on MMP-1, below 1000 nM; at Recombinant Human MMP-13 it was below 100 nM.
Regarding `CC1[C@H](c2ccccc2)[C@]1(NS(=O)(=O)c1ccc(-c2ccc3nsnc3c2)s1)C(=O)O` (stereo partly drawn) [Example 2-497], the IC50 is below 100 nM at aggrecanase-1, at least 1000 nM at MMP-1 and below 100 nM at Recombinant Human MMP-13.
Regarding `C[C@]1(c2ccccc2)C[C@@]1(NS(=O)(=O)c1ccc(-n2cc(Cl)cn2)s1)C(=O)O` [Example 2-498], the figures for the IC50 at aggrecanase-1, on MMP-1 and on Recombinant Human MMP-13 were below 100 nM, at least 1000 nM and below 1000 nM, respectively.
The matching figures for `CC1[C@H](c2ccccc2)[C@]1(NS(=O)(=O)c1cn2cc(-c3ccccc3)nc2s1)C(=O)O` (stereo partly drawn) [Example 2-499]: below 1000 nM, below 1000 nM and below 100 nM.
Turning to `CC1[C@H](c2ccccc2)[C@]1(NS(=O)(=O)N1CCC(Oc2ccc(Cl)cc2)C1)C(=O)O` (stereo partly drawn) [Example 2-500], the concentration for half-maximal inhibition (IC50) at aggrecanase-1 was at least 1000 nM; at MMP-1, at least 1000 nM; at Recombinant Human MMP-13 it was below 1000 nM.
Take `CC1[C@H](c2ccccc2)[C@]1(NS(=O)(=O)N1CCC(Oc2cccc(Cl)c2)C1)C(=O)O` (stereo partly drawn) [Example 2-501]: the concentration for half-maximal inhibition (IC50) on aggrecanase-1, at MMP-1 and at Recombinant Human MMP-13 was at least 1000 nM throughout.
As for `CC1[C@H](c2ccccc2)[C@]1(NS(=O)(=O)N1CCN(c2ccc(Cl)cc2)C(=O)C1)C(=O)O` (stereo partly drawn) [Example 2-502], the IC50 on aggrecanase-1, at MMP-1 and at Recombinant Human MMP-13 was at least 1000 nM in each case.
On to `CC1[C@H](c2ccccc2)[C@]1(NS(=O)(=O)N1CCN(c2ccc(Cl)nn2)CC1)C(=O)O` (stereo partly drawn) [Example 2-503], for which the values for the IC50 on aggrecanase-1, on MMP-1 and at Recombinant Human MMP-13 were below 1000 nM, at least 1000 nM and below 1000 nM, respectively.
Regarding `CC1[C@H](c2ccccc2)[C@]1(NS(=O)(=O)N1CCN(c2ccc(C(F)(F)F)cc2)C(=O)C1)C(=O)O` (stereo partly drawn) [Example 2-504], the IC50 on aggrecanase-1 was at least 1000 nM; at MMP-1, at least 1000 nM; at Recombinant Human MMP-13, below 1000 nM.
`CC1[C@H](c2ccccc2)[C@]1(NS(=O)(=O)N1Cc2ccc(Br)cc2C1)C(=O)O` (stereo partly drawn) [Example 2-505]: the IC50 on aggrecanase-1 is at least 1000 nM; at MMP-1, at least 1000 nM; on Recombinant Human MMP-13 it was below 1000 nM.
Regarding `C[C@]1(c2ccccc2)C[C@@]1(NS(=O)(=O)c1ccc(-n2cc(C(F)(F)F)cn2)cc1)C(=O)O` [Example 2-506], the IC50 at aggrecanase-1 was at least 1000 nM; on MMP-1, below 1000 nM; at Recombinant Human MMP-13, below 100 nM.
Regarding `CC1[C@H](c2ccccc2)[C@]1(NS(=O)(=O)c1ccc(-n2cc(C(F)(F)F)cn2)cc1)C(=O)O` (stereo partly drawn) [Example 2-507], the IC50 on aggrecanase-1 is at least 1000 nM; at MMP-1 it was below 1000 nM; at Recombinant Human MMP-13, below 100 nM.
As to `CC1C(c2ccccc2)C1(NS(=O)(=O)c1ccc(Cc2ccccc2)s1)C(=O)O` (stereo not drawn) [Example 2-508], the 50% inhibitory concentration (IC50) on aggrecanase-1, on MMP-1 and on Recombinant Human MMP-13 was at least 1000 nM throughout.
Take `CC1C(c2ccccc2)C1(NS(=O)(=O)c1ccc(-c2cccc(O)c2)s1)C(=O)O` (stereo not drawn) [Example 2-509]: the IC50 is below 1000 nM on aggrecanase-1, at least 1000 nM at MMP-1 and below 100 nM on Recombinant Human MMP-13.
In the case of `CC(C)OC(=O)N1CCN(S(=O)(=O)N[C@@]2(C(=O)O)C[C@@H]2c2ccccc2)CC1` [Example 2-510], the IC50 on aggrecanase-1, at MMP-1 and at Recombinant Human MMP-13 was at least 1000 nM throughout.

Values taken from patent US20080261994A1, “CYCLOPROPANE COMPOUNDS AND PHARMACEUTICAL USE THEREOF” (Japan Tobacco Inc., priority 2003, published 2008).
